According to ChEMBL document CHEMBL4049411, “Rational Design, Synthesis, and Biological Evaluation of Heterocyclic Quinolones Targeting the Respiratory Chain of Mycobacterium tuberculosis” (J Med Chem, 2017):

Key:
[1] = Half life in Wistar rat at 10 mg/kg administered via oral gavage after 24 hrs by LC-MS/MS analysis; type: ADME, organism-based; settings: in vivo
Rattus norvegicus [2] = assay: Volume of distribution in steady state in Wistar rat assessed as 2-(4-(3,3-Difluoropyrrolidin-1-yl)phenyl)-5,7-difluoro-3-methylquinolin-4(1H)-one at 0.5 mg/kg, iv after 24 hrs by LC-MS/MS analysis; type: ADME, organism-based; settings: in vivo
Rattus norvegicus [3] = assay: AUC in Wistar rat assessed as 2-(4-(3,3-Difluoropyrrolidin-1-yl)phenyl)-5,7-difluoro-3-methylquinolin-4(1H)-one at 10 mg/kg administered via oral gavage after 24 hrs by LC-MS/MS analysis; type: ADME, organism-based; set-up: dose 10 mg/kg, time < 24 hr, route oral; settings: in vivo
[4] = Prodrug activation in Sprague-Dawley rat assessed as 2-(4-(3,3-difluoropyrrolidin-1-yl)phenyl)-5,7-difluoro-3-methylquinolin-4(1H)-one formation in bile at 50 mg/kg, po via gavage up to 9 hrs by HPLC analysis; type: organism-based; settings: in vivo
[5] = Oral bioavailability in Wistar rat at 10 mg/kg administered via gavage after 24 hrs by LC-MS/MS analysis; type: ADME, organism-based; settings: in vivo
[6] = Drug metabolism in Sprague-Dawley rat assessed as 2-(4-(3,3-difluoro-4-hydroxypyrrolidin-1-yl)phenyl)-5,7-difluoro-3-methylquinolin-4(1H)-one metabolite formation in urine at 50 mg/kg, po via gavage up to 9 hrs by HPLC analysis; type: ADME, organism-based; settings: in vivo
[7] = Drug metabolism in Sprague-Dawley rat assessed as M1 metabolite formation in bile at 50 mg/kg, po via gavage up to 9 hrs by HPLC analysis; type: ADME, organism-based; settings: in vivo
Rattus norvegicus [8] = assay: AUC in Wistar rat assessed as 2-(4-(3,3-Difluoropyrrolidin-1-yl)phenyl)-5,7-difluoro-3-methylquinolin-4(1H)-one at 50 mg/kg administered via oral gavage after 24 hrs by LC-MS/MS analysis; type: ADME, organism-based; set-up: dose 50 mg/kg, time < 24 hr, route oral; settings: in vivo
Rattus norvegicus [9] = assay: Cmax in Wistar rat assessed as 2-(4-(3,3-Difluoropyrrolidin-1-yl)phenyl)-5,7-difluoro-3-methylquinolin-4(1H)-one at 10 mg/kg administered via oral gavage after 24 hrs by LC-MS/MS analysis; type: ADME, organism-based; set-up: dose 10 mg/kg, route oral; settings: in vivo
[10] = Drug metabolism in Sprague-Dawley rat assessed as 2-(4-(3,3-difluoro-4-hydroxypyrrolidin-1-yl)phenyl)-5,7-difluoro-3-methylquinolin-4(1H)-one metabolite formation in bile at 50 mg/kg, po via gavage up to 9 hrs by HPLC analysis; type: ADME, organism-based; settings: in vivo
[11] = Prodrug activation in Sprague-Dawley rat assessed as 2-(4-(3,3-difluoropyrrolidin-1-yl)phenyl)-5,7-difluoro-3-methylquinolin-4(1H)-one formation in urine at 50 mg/kg, po via gavage up to 9 hrs by HPLC analysis; type: organism-based; settings: in vivo
[12] = AUC in Wistar rat at 10 mg/kg administered via oral gavage after 24 hrs by LC-MS/MS analysis; type: ADME, organism-based; set-up: dose 10 mg/kg, time < 24 hr, route oral; settings: in vivo
Rattus norvegicus [13] = assay: Half life in Wistar rat assessed as 2-(4-(3,3-Difluoropyrrolidin-1-yl)phenyl)-5,7-difluoro-3-methylquinolin-4(1H)-one at 10 mg/kg administered via oral gavage after 24 hrs by LC-MS/MS analysis; type: ADME, organism-based; settings: in vivo
Rattus norvegicus [14] = assay: Oral bioavailability in Wistar rat assessed as 2-(4-(3,3-Difluoropyrrolidin-1-yl)phenyl)-5,7-difluoro-3-methylquinolin-4(1H)-one at 50 mg/kg administered via gavage after 24 hrs by LC-MS/MS analysis; type: ADME, organism-based; settings: in vivo
[15] = Cmax in Wistar rat at 10 mg/kg administered via oral gavage after 24 hrs by LC-MS/MS analysis; type: ADME, organism-based; set-up: dose 10 mg/kg, route oral; settings: in vivo
[16] = Oral bioavailability in Wistar rat at 50 mg/kg administered via gavage after 24 hrs by LC-MS/MS analysis; type: ADME, organism-based; settings: in vivo
[17] = Retention time of compound by HPLC anlaysis
Rattus norvegicus [18] = assay: AUC in Wistar rat assessed as 2-(4-(3,3-Difluoropyrrolidin-1-yl)phenyl)-5,7-difluoro-3-methylquinolin-4(1H)-one at 0.5 mg/kg, iv after 24 hrs by LC-MS/MS analysis; type: ADME, organism-based; set-up: time < 24 hr, dose 0.5 mg/kg, route intravenous; settings: in vivo
[19] = Drug metabolism in Sprague-Dawley rat assessed as M3 metabolite formation in urine at 50 mg/kg, po via gavage up to 9 hrs by HPLC analysis; type: ADME, organism-based; settings: in vivo
Rattus norvegicus [20] = assay: Clearance in Wistar rat assessed as 2-(4-(3,3-Difluoropyrrolidin-1-yl)phenyl)-5,7-difluoro-3-methylquinolin-4(1H)-one at 0.5 mg/kg, iv after 24 hrs by LC-MS/MS analysis; type: ADME, organism-based; settings: in vivo
[21] = Drug metabolism in Sprague-Dawley rat assessed as M2 metabolite formation in bile at 50 mg/kg, po via gavage up to 9 hrs by HPLC analysis; type: ADME, organism-based; settings: in vivo
[22] = Cmax in Wistar rat at 50 mg/kg administered via oral gavage after 24 hrs by LC-MS/MS analysis; type: ADME, organism-based; set-up: dose 50 mg/kg, route oral; settings: in vivo
Rattus norvegicus [23] = assay: Half life in Wistar rat assessed as 2-(4-(3,3-Difluoropyrrolidin-1-yl)phenyl)-5,7-difluoro-3-methylquinolin-4(1H)-one at 50 mg/kg administered via oral gavage after 24 hrs by LC-MS/MS analysis; type: ADME, organism-based; settings: in vivo
[24] = Half life in Wistar rat at 50 mg/kg administered via oral gavage after 24 hrs by LC-MS/MS analysis; type: ADME, organism-based; settings: in vivo
Rattus norvegicus [25] = assay: Half life in Wistar rat assessed as 2-(4-(3,3-Difluoropyrrolidin-1-yl)phenyl)-5,7-difluoro-3-methylquinolin-4(1H)-one at 0.5 mg/kg, iv after 24 hrs by LC-MS/MS analysis; type: ADME, organism-based; settings: in vivo
Rattus norvegicus [26] = assay: Cmax in Wistar rat assessed as 2-(4-(3,3-Difluoropyrrolidin-1-yl)phenyl)-5,7-difluoro-3-methylquinolin-4(1H)-one at 50 mg/kg administered via oral gavage after 24 hrs by LC-MS/MS analysis; type: ADME, organism-based; set-up: dose 50 mg/kg, route oral; settings: in vivo
[27] = AUC in Wistar rat at 50 mg/kg administered via oral gavage after 24 hrs by LC-MS/MS analysis; type: ADME, organism-based; set-up: time < 24 hr, dose 50 mg/kg, route oral; settings: in vivo
[28] = Drug metabolism in Sprague-Dawley rat assessed as M3 metabolite formation in bile at 50 mg/kg, po via gavage up to 9 hrs by HPLC analysis; type: ADME, organism-based; settings: in vivo
Rattus norvegicus [29] = assay: Oral bioavailability in Wistar rat assessed as 2-(4-(3,3-Difluoropyrrolidin-1-yl)phenyl)-5,7-difluoro-3-methylquinolin-4(1H)-one at 10 mg/kg administered via gavage after 24 hrs by LC-MS/MS analysis; type: ADME, organism-based; settings: in vivo

With CC(=O)Oc1c(C)c(-c2ccc(N3CCC(F)(F)C3)cc2)nc2cc(F)cc(F)c12 the half-life [1] was 3.9 h, the Vdss (Rattus norvegicus [2]) was 0.291 L/kg and the AUC (Rattus norvegicus [3]) was 5400 ng·h/mL. The Drug metabolism [4] was “Metabolite_Detected”, the bioavailability [5] was 63.8% and the Drug metabolism [6] was “Metabolite_Detected”. The Drug metabolism [7] was “Metabolite_Detected”, the AUC (Rattus norvegicus [8]) was 16500 ng·h/mL and the Cmax (Rattus norvegicus [9]) was 610 ng/mL. The Drug metabolism [10] was “Metabolite_Detected”, the Drug metabolism [11] was “Metabolite_Detected” and the AUC at 24 h [12] was 12300 ng·h/mL. The t1/2 (Rattus norvegicus [13]) was 3.8 h, the F (Rattus norvegicus [14]) was 17.1% and the Cmax [15] was 1700 ng/mL. The bioavailability [16] was 30.7%, the Retention time [17] was 14.3 min and the AUC (Rattus norvegicus [18]) was 964 ng·h/mL. For the same molecule, the Drug metabolism [19] was “Metabolite_Detected”, the CL (Rattus norvegicus [20]) was 8.73 mL/min/kg and the Drug metabolism [21] was “Metabolite_Detected”. For the same molecule, the Cmax [22] was 4000 ng/mL, the t1/2 (Rattus norvegicus [23]) was 4.2 h and the half-life [24] was 2.3 h. It also gave a t1/2 (Rattus norvegicus [25]) of 1.48 h, a Cmax (Rattus norvegicus [26]) of 1400 ng/mL and an AUC at 24 h [27] of 29600 ng·h/mL. For the same molecule, the Drug metabolism [28] was “Metabolite_Detected” and the F (Rattus norvegicus [29]) was 28%.
